One test concerns the target T1, VEGFR2 (Homo sapiens, UniProt P35968).
T1 construct: coding for the cytoplasmic domain, beginning with lysine 791 and including the termination codon; made in house; host or cells: Sf9 insect cells, baculovirus (pFastBacHis)
Nature of the test: Inhibition against receptor tyrosine kinase activity (HTRF), VEGFR2. The note with it: His6-VEGFR2 cytoplasmic domain, biotin-poly(GT), HTRF; read-out: VEGFR2 kinase IC50. The format is biochemical. Here is the method:
This assay is used to determine inhibition of a test substance on tyrosine kinase activity. […] Expression in an appropriate expression system can produce a polypeptide with tyrosine kinase activity. […] The recombinant construct was transfected into insect cells (Spondoptea frugiperda9 (Sf9)) to prepare a recombinant Baculovirus.
For expression of the VEGFR2 tyrosine kinase, Sf9 cells were infected with the VEGFR2 recombinant virus and collected after 48 hours. The collected cells were rinsed with ice-cooled phosphate buffered saline (PBS) and then resuspended using 20 ml of ice-cooled Lysis Buffer (50 mM Tris-HCl (pH 8.5), 5 mM 2-mercaptoethanol, 100 mM KCl, 1 mM phenylmethylsulfonyl fluoride, 1% (v/v) NP-40) per 1.5×10^8 cells. The suspension was centrifuged at 12,000 rpm for 30 minutes at 4° C. and the supernatant was obtained. The supernatant was added to a Ni-NTA agarose column (3 ml, purchased from Qiagen) equilibrated with Buffer A {20 mM Tris-HCl (pH 8.5), 5 mM 2-mercaptoethanol, 500 mM KCl, 20 mM imidazole, 10% (v/v) glycerol}. The column was washed with 30 ml of Buffer A, and then with 6 ml of Buffer B {20 mM Tris-HCl (pH 8.5), 5 mM 2-mercaptoethanol, 1M KCl, 10% (v/v) glycerol}, and finally with 6 ml of Buffer A. After washing, it was eluted with 6 ml of Buffer C {20 mM Tris-HCl (pH 8.5), 5 mM 2-mercaptoethanol, 100 mM KCl, 100 mM imidazole, 10% (v/v) glycerol}. The eluate was placed on a dialysis membrane (purchased from Spectrum Laboratories) and dialyzed with a dialysis buffer {20 mM Tris-HCl (pH 7.5), 10% (v/v) glycerol, 1 mM dithiothreitol, 0.1 mM Na3VO4, 0.1 mM EGTA}. […] Using the same method for the cytoplasmic domains of FGFR1, PDGFRβ and HGFR yielded respective recombinant proteins fused with 6 histidine residues at the N-terminal (His6-FGFR1, His6-PDGFRβ or His6-HGFR).
The tyrosine kinase reaction was conducted as follows. […] Next, 10 μl of 4 μM ATP (diluted with distilled water) was added prior to incubation at 30° C. for 10 minutes, and then 10 μl of 500 mM EDTA (pH 8.0) was added.
The tyrosine phosphorylation rate for the biotin-poly(GT) was expressed as the delta F % value as described in the HTRF Standard Experiment Methods text by CIS Diagnostics Co. The delta F % value in the presence of the test substance was determined as a ratio (%) with the delta F % value with addition of His6-VEGFR2 in the absence of the test substance defined as 100% and the delta F % value in the absence of both the test substance and His6-VEGFR2 defined as 0%.
Background: Time-resolved FRET reads energy transfer from a long-lived donor to a nearby acceptor.

A further test has as its target T2, FGFR1 (Homo sapiens, UniProt P11362).
T2 construct: made in house; host or cells: Sf9 insect cells, baculovirus (pFastBacHis), by the same method as VEGFR2
Nature of the test: Inhibition against receptor tyrosine kinase activity (HTRF), FGFR1. The format is biochemical. Particulars: His6-FGFR1 cytoplasmic domain, biotin-poly(GT), HTRF; read-out: FGFR1 kinase IC50. The text has this:
This assay is used to determine inhibition of a test substance on tyrosine kinase activity. DNA coding for the cytoplasmic domain of VEGFR2 is obtained by total cDNA synthesis (Edwards M, International Biotechnology Lab 5(3), 19-25, 1987) or by cloning. Expression in an appropriate expression system can produce a polypeptide with tyrosine kinase activity. […] For VEGFR2 (GenBank Accession No. L04947), the 1.7 kb DNA fragment described by Terman et al. (Oncogene, 6(9), 1677-1683, 1991), coding for the cytoplasmic domain, beginning with lysine 791 and including the termination codon, was isolated from a human placental cDNA library (purchased from Clontech Laboratories, Inc.) and cloned in a Baculovirus expression vector (pFastBacHis, purchased from GIBCO BRL). The recombinant construct was transfected into insect cells (Spondoptea frugiperda9 (Sf9)) to prepare a recombinant Baculovirus. (Instructions for preparation and use of recombinant Baculovirus may be found in standard texts, such as “Bac-To-Bac Baculovirus Expression System” (GIBCO BRL).) The cytoplasmic fragment starting from lysine 398 (FGFR1, GenBank Accession No. X52833), the cytoplasmic fragment starting from lysine 558 (PDGFRβ, GenBank Accession No. M21616) or the cytoplasmic fragment starting from lysine 974 (HGFR, GenBank Accession No. J02958) may be cloned and expressed by the same method for use in assays for other tyrosine kinases. EGFR was purchased from Sigma Co. (Product No. E-2645).
For expression of the VEGFR2 tyrosine kinase, Sf9 cells were infected with the VEGFR2 recombinant virus and collected after 48 hours. The collected cells were rinsed with ice-cooled phosphate buffered saline (PBS) and then resuspended using 20 ml of ice-cooled Lysis Buffer (50 mM Tris-HCl (pH 8.5), 5 mM 2-mercaptoethanol, 100 mM KCl, 1 mM phenylmethylsulfonyl fluoride, 1% (v/v) NP-40) per 1.5×10^8 cells. The suspension was centrifuged at 12,000 rpm for 30 minutes at 4° C. and the supernatant was obtained. The supernatant was added to a Ni-NTA agarose column (3 ml, purchased from Qiagen) equilibrated with Buffer A {20 mM Tris-HCl (pH 8.5), 5 mM 2-mercaptoethanol, 500 mM KCl, 20 mM imidazole, 10% (v/v) glycerol}. The column was washed with 30 ml of Buffer A, and then with 6 ml of Buffer B {20 mM Tris-HCl (pH 8.5), 5 mM 2-mercaptoethanol, 1M KCl, 10% (v/v) glycerol}, and finally with 6 ml of Buffer A. After washing, it was eluted with 6 ml of Buffer C {20 mM Tris-HCl (pH 8.5), 5 mM 2-mercaptoethanol, 100 mM KCl, 100 mM imidazole, 10% (v/v) glycerol}. The eluate was placed on a dialysis membrane (purchased from Spectrum Laboratories) and dialyzed with a dialysis buffer {20 mM Tris-HCl (pH 7.5), 10% (v/v) glycerol, 1 mM dithiothreitol, 0.1 mM Na3VO4, 0.1 mM EGTA}. After dialysis, it was supplied for SDS-electrophoresis, and the recombinant protein (His6-VEGFR2, cytoplasmic domain of VEGFR2 fused with 6 histidine residues at the N-terminus) detected at a molecular weight of approximately 100 kDa with Coumassie Brilliant Blue staining was assayed using BSA (bovine serum albumin, purchased from Sigma Co.) as the standard substance, and stored at −80° C. until use. Using the same method for the cytoplasmic domains of FGFR1, PDGFRβ and HGFR yielded respective recombinant proteins fused with 6 histidine residues at the N-terminal (His6-FGFR1, His6-PDGFRβ or His6-HGFR).
The tyrosine kinase reaction was conducted as follows. In the case of VEGFR2, for example, 10 μl of a kinase reaction solution {200 mM Hepes (pH 7.4), 80 mM MgCl2, 16 mM MnCl2, 2 mM Na3VO4}, 250 ng of biotin-bound poly(Glu4:Tyr1) (biotin-poly(GT), purchased from CIS Diagnostics Co.) (6 μl of a 15-fold dilution with distilled water), 15 ng of His6-VEGFR2 (10 μl of a 240-fold dilution with 0.4% BSA solution) and the test substance dissolved in dimethyl sulfoxide (4 μl of a 100-fold dilution with 0.1% BSA solution) were added into each well of a 96-well round-bottom plate (NUNC Co., Product No. 163320), to a total of 30 μl. […]

T2 sequence (P11362 398-822 limits assumed): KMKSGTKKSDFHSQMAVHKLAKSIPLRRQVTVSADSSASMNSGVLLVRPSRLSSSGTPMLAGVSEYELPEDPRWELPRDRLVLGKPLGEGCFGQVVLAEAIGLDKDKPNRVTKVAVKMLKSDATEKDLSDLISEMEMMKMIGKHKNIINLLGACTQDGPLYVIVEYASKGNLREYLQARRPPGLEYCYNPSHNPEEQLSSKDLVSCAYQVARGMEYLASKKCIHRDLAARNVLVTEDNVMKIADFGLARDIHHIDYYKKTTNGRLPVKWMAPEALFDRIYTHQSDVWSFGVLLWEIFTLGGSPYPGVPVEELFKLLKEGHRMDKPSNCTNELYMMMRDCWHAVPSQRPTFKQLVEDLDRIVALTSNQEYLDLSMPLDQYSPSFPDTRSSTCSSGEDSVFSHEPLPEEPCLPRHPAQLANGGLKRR
T1 sequence (P35968 786-1356 limits assumed): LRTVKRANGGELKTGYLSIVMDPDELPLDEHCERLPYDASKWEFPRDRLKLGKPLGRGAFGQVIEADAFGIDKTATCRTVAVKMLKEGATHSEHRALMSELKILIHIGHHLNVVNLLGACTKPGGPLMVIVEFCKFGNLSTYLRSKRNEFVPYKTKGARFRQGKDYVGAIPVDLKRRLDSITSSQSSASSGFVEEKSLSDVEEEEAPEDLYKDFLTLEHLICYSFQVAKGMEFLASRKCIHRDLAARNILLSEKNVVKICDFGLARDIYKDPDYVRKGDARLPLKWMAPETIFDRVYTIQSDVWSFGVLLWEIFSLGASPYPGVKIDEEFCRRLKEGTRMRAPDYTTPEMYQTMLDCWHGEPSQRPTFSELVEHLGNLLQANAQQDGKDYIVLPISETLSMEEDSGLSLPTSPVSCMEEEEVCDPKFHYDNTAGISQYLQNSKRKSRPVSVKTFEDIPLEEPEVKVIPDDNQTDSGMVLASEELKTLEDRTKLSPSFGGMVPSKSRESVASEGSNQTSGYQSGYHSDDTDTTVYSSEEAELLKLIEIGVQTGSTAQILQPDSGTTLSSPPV

In general, IC50 refers to the point on the concentration scale where inhibition reaches its midpoint. Consider `CCNC(=O)n1ccc2cc(Oc3ccnc(NC(=O)N4CCCC4)c3)ccc21` [Example 81, N1-Ethyl-5-((2-((pyrrolidin-1-ylcarbonyl)amino)-4-pyridyl)oxy)-1H-1-indolecarboxamide], for which the results for the half-maximal inhibitory concentration (IC50) at VEGFR2 and on FGFR1 were 12 nM and 38 nM, respectively.

For the compound `CCNC(=O)n1ccc2cc(Oc3ccnc(NC(=O)N4CCOCC4)c3)ccc21` [Example 82, N4-(4-((1-(Ethylamino)carbonyl-1H-5-indolyl)oxy)-2-pyridyl)-4-morpholinecarboxamide], the values for the IC50 at VEGFR2 and at FGFR1 were 15 nM and 24 nM, respectively.

With `O=C(Nc1cc(Oc2ccc3c(ccn3C(=O)NC3CC3)c2)ccn1)N1CCCC1` [Example 88, N1-Cyclopropyl-5-(2-((pyrrolidin-1-ylcarbonyl)amino)-4-pyridyl)oxy-1H-1-indolecarboxamide], the IC50 stood at 14 nM on VEGFR2 and 24 nM at FGFR1.

As to `CNC(=O)n1cc(Cl)c2cc(Oc3ccnc(NC(=O)N4CCC(O)CC4)c3)ccc21` [Example 104, N1-Methyl-3-chloro-5-(2-((4-hydroxypiperidino)carbonyl)amino-4-pyridyl)oxy-1H-1-indolecarboxamide], the IC50 at VEGFR2 was determined as 3.9 nM; at FGFR1, 19 nM.

For `CNC(=O)Nc1cc(Oc2ccc3c(ccn3C(=O)NC)c2)ccn1` [Example 116, N1-Methyl-5-(2-((methylamino)carbonyl)amino-4-pyridyl)oxy-1H-1-indolecarboxamide], the half-inhibitory concentration (IC50) at VEGFR2 was determined as 14 nM; on FGFR1, 87 nM.

On to `CCN(CC)C(=O)Nc1cc(Oc2ccc3c(ccn3C(=O)NC)c2)ccn1` [Example 119, N1-Methyl-5-(2-((diethylamino)carbonyl)amino-4-pyridyl)oxy-1H-1-indolecarboxamide], for which the IC50 was determined as 21 nM at VEGFR2 and 120 nM on FGFR1.

In the case of `C#CCNC(=O)n1ccc2cc(Oc3ccnc(NC(=O)N4CCCC4)c3)ccc21` [Example 139, N1-(2-Propynyl)-5-(2-((pyrrolidin-1-yl)carbonyl)amino-4-pyridyl)oxy-1H-1-indolecarboxamide], the IC50 on VEGFR2 was determined as 6.3 nM; on FGFR1, 190 nM.

As for `CNC(=O)n1ccc2cc(Oc3ccnc(NC(=O)N4CCC4)c3)ccc21` [Example 206, N1-Methyl-5-(2-(azetidin-1-ylcarbonyl)amino-4-pyridyl)oxy-1H-1-indolecarboxamide], the half-maximal inhibitory concentration (IC50) turned out to be 4.1 nM at VEGFR2 and 3.5 nM at FGFR1.

Regarding `CCNC(=O)n1ccc2cc(Oc3ccnc(NC(=O)N4CCC4)c3)ccc21` [Example 207, N1-Ethyl-5-(2-(azetidin-1-ylcarbonyl)amino-4-pyridyl)oxy-1H-1-indolecarboxamide], the values for the IC50 at VEGFR2 and at FGFR1 were 4.6 nM and 12 nM, respectively.

Turning to `O=C(Nc1cc(Oc2ccc3c(ccn3C(=O)NC3CC3)c2)ccn1)N1CCC1` [Example 208, N1-Cyclopropyl-5-(2-(azetidin-1-ylcarbonyl)amino-4-pyridyl)oxy-1H-1-indolecarboxamide], the IC50 at VEGFR2 is 7.7 nM; on FGFR1 it was 6.8 nM.

Regarding `CNC(=O)n1ccc2cc(Oc3ccnc(NC(=O)N4CCC(N5CCOCC5)CC4)c3)ccc21` [Example 209, N1-Methyl-5-(2-(((4-(morpholin-4-yl)piperidin-1-yl)carbonyl)amino)pyridin-4-yloxy)-1H-1-indolecarboxamide], the concentration for half-maximal inhibition (IC50) at VEGFR2 amounted to 17 nM; at FGFR1, 29 nM.

For `CNC(=O)n1ccc2cc(Oc3ccnc(NC(=O)N4CCC(N5CCC5)CC4)c3)ccc21` [Example 210, N1-Methyl-5-(2-(((4-(azetidin-1-yl)piperidin-1-yl)carbonyl)amino)pyridin-4-yloxy)-1H-1-indolecarboxamide], the IC50 at VEGFR2 is 8.1 nM; at FGFR1 it was 40 nM.

Regarding `CCN(CC)C1CCN(C(=O)Nc2cc(Oc3ccc4c(ccn4C(=O)NC)c3)ccn2)CC1` [Example 211, N1-Methyl-5-(2-(((4-(diethylamino)piperidin-1-yl)carbonyl)amino)pyridin-4-yloxy)-1H-1-indolecarboxamide], the IC50 at VEGFR2 amounted to 45 nM; on FGFR1, 36 nM.

Regarding `CNC(=O)n1ccc2cc(Oc3ccnc(NC(=O)N4CCC(N5CCC(O)CC5)CC4)c3)ccc21` [Example 212, N1-Methyl-5-(2-(((4-(4-hydroxypiperidin-1-yl)piperidin-1-yl)carbonyl)amino)pyridin-4-yloxy)-1H-1-indolecarboxamide], the IC50 amounted to 8.6 nM on VEGFR2 and 19 nM on FGFR1.

With `CCCNC(=O)n1ccc2cc(Oc3ccnc(NC(=O)N4CCCC4)c3)ccc21` [Example 213, N1-Propyl-5-(2-(pyrrolidin-1-ylcarbonyl)amino-4-pyridyl)oxy-1H-1-indolecarboxamide], the figures for the IC50 on VEGFR2 and at FGFR1 were 10 nM and 330 nM, respectively.

On to “N1-Methyl-5-(2-((4-(2-hydroxy-2-methylpropionyl)piperazin-1-yl)carbonyl)amino-4-pyridyl)oxy-1H-indolecarboxamide [Example 28]”, for which the IC50 worked out at 4.5 nM at VEGFR2 and 4.1 nM at FGFR1.
